Laboratory results reported in patent publication US20240077500A1, “METHOD FOR THE DETECTION AND TREATMENT OF PROTEINOPATHIES” (Women & Infants Hospital of Rhode Island, priority 2021, published 2024).

Experiments:
[1] = test system: hTAU mice; experiment: Nesting activity assay in e-PES injected hTAU mice; format: in vivo, mouse
Procedure: FIG. 21A: provides photographs of representative nests constructed by the mice; FIG. 21B and FIG. 21D provide bar graphs showing nestlet score for 4-month old (FIG. 21B) and 6-month old (FIG. 21D) mice; FIG. 21C and FIG. 21E provide bar graphs showing untorn nestlet weight for 4-month old (FIG. 21C) and 6-month old (FIG. 21E) mice.
Nesting activity was assessed using a modified scoring criteria to rate the quality of nest construction and the amount of torn nestlet material. Following the nocturnal period, untorn nesting material was weighed, and nests were photographed for scoring on a 0-7 ordinal scale modified from published criteria. Nestlet scores and weights are shown as mean+SEM; *p<0.05 versus controls. Preeclampsia serum was used to observe significant effects in hTAU mice without waiting for 9-12 months of age.
(§1) 100 μL e-PES (early-onset preeclampsia serum) was injected in 10-12 weeks old non-pregnant female hTAU mice. The i.p. injection was performed once a week for 4 weeks. Trehalose treatment (2 g/kg/week) or saline (100 μL/week) was initiated after completion of 4 weeks of e-PES injection cycle. At the end of the trehalose treatment, a group of mice (n=5 for each group) was sacrificed after 2 weeks of resting biological activity (FIG. 18).
(§2) Another two groups were kept to assess their behavioral and brain pathological outcomes (i.e., nesting behavior and/or sensory motor coordination).

[2] = test system: hTAU transgenic mouse model; experiment: Preeclampsia serum-induced onset of AD features in the hTAU transgenic mouse model (Example 7); format: in vivo; details: weekly trehalose (2 mg/kg) from 2 months (60 day old mice) for one month; preeclampsia serum injected at 1 month
Procedure: The efficacy with which trehalose inhibits the onset of Alzheimer's disease (AD) features was assessed using the hTAU transgenic mouse model at ages of 3, 6, 9, and 12 months. The onset of AD features were preempted by the administration of serum obtained from pregnant women with normal pregnancy or preeclampsia.

[3] = test system: hTAU mice; experiment: Brain pathology (AT180 hyperphosphorylated Tau staining of mPFC) in e-PES injected hTAU mice (Example 8); format: in vivo, mouse; details: trehalose 2 g/kg/week i.p. for 4 weeks after 4 weeks of e-PES injection
Procedure: 10-12 week old non-pregnant female hTAU mice were injected with e-PE serum (100 μL/week for 4 weeks) followed by treatment (i.p injection) with either saline (100 μL /week) or Trehalose (2 g/kg/week) for 4 weeks, followed by 2 weeks of resting period prior to biological assessments. Medial prefrontal cortex (mPFC) was stained for hyperphosphorylated Tau (using antibody AT180 which detects Tau hyperphosphorylation at T231 & S235). FIG: 19A: Confocal images stained with AT180 are shown that correspond to the mPFC of control (upper), e-PES (middle), and e-PES+Trehalose (bottom), with quantification data in mPFC being present at right panels; inset images are the high magnification image of the selected area; FIG. 19B: provides a bar graph showing the number of AT180 positive cells/0.1 mm^2 in hTAU control, PES 49, and PES 49+trehalose treated mice.
10-12 weeks old non-pregnant female hTAU mice were injected with e-PE serum (100 μL/week for 4 weeks) followed by treatment (i.p injection) with either saline (100 μL/week) or Trehalose (2 g/kg/week) for 4 weeks, followed by 8-10 weeks of resting period prior to biological assessment. Medial prefrontal cortex (mPFC) was stained for hyperphosphorylated Tau (using antibody AT180 which detects Tau hyperphosphorylation at T231 & S235). […]
Brain pathologies were evaluated in a group of mice at 4 and 6 months of age.

[4] = test system: human trophoblasts; experiment: AD serum-induced protein aggregation in primary human trophoblasts, ProteoStat staining; format: cell-based; details: 50 mM trehalose, 10% AD patient serum, 72 hours
Procedure: (§3) Primary human trophoblasts and SHSY cells were cultured and washed with serum-free media at 70% confluency. The cells were then cultured with 10% serum samples from AD patients for 72 hours (trophoblasts) and 24 hours (neuronal cells), respectively, in the absence or presence of 50 mM trehalose. Cells were stained with ProteoStat dye and evaluated for accumulation of protein aggregates.

[5] = test system: SHSY neuronal cells; experiment: AD serum-induced protein aggregation in SHSY neuronal cells, ProteoStat staining; format: cell-based; details: 50 mM trehalose, 10% AD patient serum, 24 hours
Procedure: as §3

[6] = for humans, by the FDA, based on safety studies in mice, rats and rabbits, including during pregnancy; cited from earlier work
[7] = test system: hTAU mice; experiment: Ledge assay (sensorimotor coordination) in e-PES injected hTAU mice; format: in vivo, mouse; details: for falling off of the ledge / mobility: e-PES+trehalose mice
Text: FIGS. 22A-22C provide the results of sensory-motor coordination studies utilizing a ledge assay. hTAU mice were compared to hTAU mice injected with e-PES at 10-12 weeks age (n=5) with or without trehalose administration. […] FIG. 22C provides a bar graph comparing time spent on the ledge (seconds) for each subset of mice (i.e., hTAU control, PES 49, and PES 49+trehalose).
Sensorimotor coordination deficits were detected by the ledge assay. In the ledge assay, mice were placed on the elevated cage's ledge at a height of 35 cm and width of 0.8 cm and their movement was monitored. Each mouse was tested three times (approximately 20 seconds) and scored from 0 to 3 depending on the severity of deficits.
as §1, §2

[8] = e-PES alone compared to control and e-PES+trehalose treated hTAU mice (n=5), 6 months

OC[C@H]1O[C@H](O[C@H]2O[C@H](CO)[C@@H](O)[C@H](O)[C@H]2O)[C@H](O)[C@@H](O)[C@@H]1O [trehalose, (2R,2′R,3 S,3′S,4S,4′S,5R,5′R,6R,6′R)-6,6′-oxybis(2-(hydroxymethyl)tetrahydro-2H-pyran-3,4,5-triol)]
nestlet score at 4 months of age ([1]; between control and indicated treatment groups, 4 month old hTAU mice): no significant changes
nestlet score at 6 months of age [1, 8]: significantly lower nestlet scores
untorn nestlet weight at 6 months of age [1, 8]: significantly greater untorn nestlet weights
cognitive decline ([1]; limited (4 weeks) treatment with trehalose, 2 g/kg/week): improved cognitive decline
onset of AD features [2]: inhibited the onset of AD features
hTAU burden [3]: reduced hTAU burdern
AD serum-caused protein aggregation [4]: could be inhibited
AD serum-caused protein aggregation [5]: could be inhibited
safety status [6]: generally regarded as safe
falling off of the ledge / mobility [7]: immobile, not falling off
falling off of the ledge / mobility ([7]; listed as Trehalose): did not fall off of the ledge frequently
motor activity ([7]; trehalose 2 g/kg/week for 4 weeks after e-PES injection): could not restore motor activity completely
sensorimotor coordination deficits ([7]; trehalose 2 g/kg/week for 4 weeks after e-PES injection at 10-12 weeks of age): partially prevented
time spent on the ledge ([7]; trehalose treated mice (n=5) compared to only e-PES treated mice): significantly more time on the ledge
